Results on six compounds are retold here after patent US20240197726A1, “NOVEL TETRAHYDROISOQUINOLINE ALKALOID COMPOUND CONTAINING MACROCYCLE” (THE UNIVERSITY OF TOKYO, priority 2021, published 2024).

Holding throughout (type): cell-based
One experiment has as its system SK-OV-3 cancer cells. Briefly: antitumor activity, sulforhodamine B cell growth assay, SK-OV-3. The following applies: SK-OV-3, drug exposure 48 hours, read-out: GI50 value: 50% growth inhibitory concentration. As for the experimental part: (§1) The THIQ compound containing a macrocyclic structure of the present invention was administered to various cancer cell lines, and the antitumor activity (Go value) was observed. Specifically, verification was performed according to the literature (Yamori, T.; Matsunaga, A.; Sato, S.; Yamazaki, K.; Komi, A.; Ishizu, K. et al. Cancer Res. 1999, 59, 4042) by the following procedure.
(§2) Cells were plated at an appropriate density in a 96-well plate in RPMI 1640 together with 5% fetal bovine serum, and adhered overnight. The cells were exposed to a drug for 48 hours. Then, according to the sulforhodamine B assay described by Skehan et al (Skehan P., Storeng R., Scudiero D., Monks A., McMahon J., Vistica D., Warren J. T., Bokesch H., Kenney S., Boyd M. R. J Natl. Cancer Inst, 1990, 82, 1107-1112), the cell growth rate was measured. The absorbance of the control well (C) and the test well (T) was measured at 525 nm. In addition, the time at which the drug was added was set as time 0, and the absorbance for the test well (T0) was measured. Using these measured values, the cell growth inhibitory effect (% growth=PG) was calculated by the following formula at each concentration of the drug.
(§3) (T<T0): PG=100×[(T−T0)/T]
(§4) The PG values determined above for each cell line were plotted against the concentration (logarithm) on a semi-logarithmic graph, and summarized for each visceral cancer. Concentrations at which the dose-response curve of each cell line crossed the horizontal line of PG=50%, 0%, or −50% were calculated. These concentrations were defined as Log GI50, Log TGI, and Log LC50. Actually, using two data points of the drug concentration before and after crossing each horizontal line, the drug concentration (logarithmic value) at the intersection of the straight line connecting the two points and the horizontal line for each PG was calculated.

Experiment [1] relates to DU-145 prostate cancer cells. Briefly: antitumor activity, sulforhodamine B cell growth assay, DU-145. The following applies: DU-145, drug exposure 48 hours, read-out: GI50 value: 50% growth inhibitory concentration. Here is the method: as §1, §2, §3, §4
In experiment [2] the test system is SF-539 central nervous system cancer cells. Description: antitumor activity, sulforhodamine B cell growth assay, SF-539. Conditions: SF-539, drug exposure 48 hours, read-out: GI50 value: 50% growth inhibitory concentration. As for the experimental part:
as §1, §2, §3, §4

Experiment [3] relates to NCI-H23 lung cancer cells. Description: antitumor activity, sulforhodamine B cell growth assay, NCI-H23. The following applies: NCI-H23, drug exposure 48 hours, read-out: GI50 value: 50% growth inhibitory concentration. Here is the method:
as §1, §2, §3, §4

The test system of the next experiment is LOX-IMVI melanoma cells. Briefly: antitumor activity, sulforhodamine B cell growth assay, LOX-IMVI. The following applies: LOX-IMVI, drug exposure 48 hours, read-out: GI50 value: 50% growth inhibitory concentration. Here is the method:
as §1, §2, §3, §4

Experiment [4] has as its system NCI-H522 lung cancer cells. Briefly: antitumor activity, sulforhodamine B cell growth assay, NCI-H522. Conditions: NCI-H522, drug exposure 48 hours, read-out: GI50 value: 50% growth inhibitory concentration. Here is the method:
as §1, §2, §3, §4

Experiment [5] relates to PC-3 prostate cancer cells. Description: antitumor activity, sulforhodamine B cell growth assay, PC-3. Conditions: PC-3, drug exposure 48 hours; read-out: GI50 value: 50% growth inhibitory concentration. As for the experimental part:
as §1, §2, §3, §4

In experiment [6] the test system is U251 central nervous system cancer cells. Description: antitumor activity, sulforhodamine B cell growth assay, U251. The following applies: U251, drug exposure 48 hours, read-out: GI50 value: 50% growth inhibitory concentration. Here is the method: as §1, §2, §3, §4
Another experiment deals with OVCAR-4 cancer cells. Briefly: antitumor activity, sulforhodamine B cell growth assay, OVCAR-4. The following applies: OVCAR-4, drug exposure 48 hours, read-out: GI50 value: 50% growth inhibitory concentration. Here is the method: as §1, §2, §3, §4
Experiment [7] has as its system MKN45 gastric cancer cells. Briefly: antitumor activity, sulforhodamine B cell growth assay, MKN45. Conditions: MKN45, drug exposure 48 hours, read-out: GI50 value: 50% growth inhibitory concentration. Here is the method: as §1, §2, §3, §4
In the next experiment the test system is DMS273 lung cancer cells. Description: antitumor activity, sulforhodamine B cell growth assay, DMS273. The following applies: DMS273, drug exposure 48 hours, read-out: GI50 value: 50% growth inhibitory concentration. Here is the method:
as §1, §2, §3, §4

The test system of experiment [8] is HCT-15 colorectal cancer cells. Briefly: antitumor activity, sulforhodamine B cell growth assay, HCT-15. The following applies: HCT-15, drug exposure 48 hours, read-out: GI50 value: 50% growth inhibitory concentration. Here is the method:
as §1, §2, §3, §4

Experiment [9] deals with SF-268 central nervous system cancer cells. Briefly: antitumor activity, sulforhodamine B cell growth assay, SF-268. The following applies: SF-268, drug exposure 48 hours, read-out: GI50 value: 50% growth inhibitory concentration. Here is the method: as §1, §2, §3, §4
The subject of experiment [10] is HT-29 colorectal cancer cells. Description: antitumor activity, sulforhodamine B cell growth assay, HT-29. The following applies: HT-29, drug exposure 48 hours, read-out: GI50 value: 50% growth inhibitory concentration. As for the experimental part:
as §1, §2, §3, §4

For experiment [11], the system named is MKN-A gastric cancer cells. Briefly: antitumor activity, sulforhodamine B cell growth assay, MKN-A. The following applies: MKN-A, drug exposure 48 hours; read-out: GI50 value: 50% growth inhibitory concentration. Here is the method:
as §1, §2, §3, §4

The subject of experiment [12] is MKN74 gastric cancer cells. Briefly: antitumor activity, sulforhodamine B cell growth assay, MKN74. The following applies: MKN74, drug exposure 48 hours, read-out: GI50 value: 50% growth inhibitory concentration. Here is the method:
as §1, §2, §3, §4

A further experiment deals with ACHN kidney cancer cells. Briefly: antitumor activity, sulforhodamine B cell growth assay, ACHN. Conditions: ACHN, drug exposure 48 hours, read-out: GI50 value: 50% growth inhibitory concentration. As for the experimental part:
as §1, §2, §3, §4

For experiment [13], the system named is HBC-5 breast cancer cells. Briefly: antitumor activity, sulforhodamine B cell growth assay, HBC-5. Conditions: HBC-5, drug exposure 48 hours, read-out: GI50 value: 50% growth inhibitory concentration. As for the experimental part:
as §1, §2, §3, §4

Each structure is given as a SMILES string. Read-outs that look alike come from different tables or passages of the source. Bounds are passed on as bounds.

As for `COc1c(C)cc2c(c1O)[C@@H]1[C@@H]3Cc4c5c(C)c6c(c4C(CNC(=O)[C@H](C)NC(=O)OCC4C=C(CO5)Cn5c(=O)n(-c7ccccc7)c(=O)n54)N3[C@@H](C#N)[C@H](C2)N1C)OCO6` [Compound 16], the GI50 was 34 nM with SK-OV-3 cancer cells (Homo sapiens); 41 nM in experiment [1] (Homo sapiens); 8.2 nM in experiment [2] (Homo sapiens); 20 nM in [3] (Homo sapiens); 3.3 nM with LOX-IMVI melanoma cells (Homo sapiens); 2.4 nM in [4] (Homo sapiens). The GI50 in experiment [5] is 26 nM; in [6] (Homo sapiens, U-251), 5.8 nM; in the experiment with OVCAR-4 cancer cells (Homo sapiens) it was 36 nM; in experiment [7] (Homo sapiens, MKN-45), 7.1 nM; in the experiment with DMS273 lung cancer cells (Homo sapiens, DMS-273), 15 nM; in experiment [8] (Homo sapiens), 43 nM. The GI50 in experiment [9] (Homo sapiens) amounted to 13 nM; in experiment [10] (Homo sapiens), 7.3 nM; in experiment [11], 29 nM; in experiment [12] (Homo sapiens, MKN-74) it was 32 nM; in the experiment with ACHN kidney cancer cells (Homo sapiens), 25 nM; in [13] (HBC5), 6.9 nM.
In the case of `COc1c(C)cc2c(c1O)C1C3Cc4c5c(C)c6c(c4C(CNC(=O)C(C)NC(=O)OCC4C=C(CO5)CC5C(=O)N(c7ccccc7)C(=O)C45)N3C(C#N)C(C2)N1C)OCO6` (stereo not drawn) [Compound 18], the GI50 in the experiment with SK-OV-3 cancer cells is 410 nM; in experiment [1], 330 nM; in experiment [2], 33 nM; in experiment [3], 110 nM; with LOX-IMVI melanoma cells, 27 nM; in [4], 20 nM. Moreover, the GI50 in experiment [5] was 170 nM; in experiment [6], 50 nM; in the experiment on OVCAR-4 cancer cells, 350 nM; in experiment [7], 78 nM; in the experiment with DMS273 lung cancer cells, 100 nM; in experiment [8] it was 630 nM. For the same compound, the GI50 in [9] was determined as 74 nM; in experiment [10], 72 nM; in experiment [11], 210 nM; in [12], 120 nM; in the experiment with ACHN kidney cancer cells, 240 nM; in experiment [13], 38 nM.
With `COc1c(C)cc2c(c1O)[C@@H]1[C@@H]3Cc4c5c(C)c6c(c4C(CNC(=O)[C@H](C)N(C)CC#CCO5)N3[C@@H](C#N)[C@H](C2)N1C)OCO6` [Compound 29], the GI50 in the experiment on SK-OV-3 cancer cells (Homo sapiens) came out at 5.7 nM; in experiment [1] (Homo sapiens), 3.5 nM; in [2] (Homo sapiens), 1.3 nM; in [3] (Homo sapiens), 2.6 nM; in the experiment on LOX-IMVI melanoma cells (Homo sapiens) it was 0.59 nM; in experiment [4] (Homo sapiens), 0.6 nM. Besides, the GI50 in experiment [5] was determined as 3 nM; in experiment [6] (Homo sapiens, U-251) it was 1.4 nM; in the experiment with OVCAR-4 cancer cells (Homo sapiens), 3.5 nM; in experiment [7] (Homo sapiens, MKN-45), 1.3 nM; in the experiment with DMS273 lung cancer cells (Homo sapiens, DMS-273) it was 1.1 nM; in [8] (Homo sapiens), 3.9 nM. Further, the GI50 in experiment [9] (Homo sapiens) came out at 2.8 nM; in experiment [10] (Homo sapiens), 2 nM; in experiment [11], 3.5 nM; in experiment [12] (Homo sapiens, MKN-74), 3.7 nM; with ACHN kidney cancer cells (Homo sapiens), 2.2 nM; in experiment [13] (HBC5), 1.8 nM.
For the compound `C=C1/C=C/CN[C@@H](C)C(=O)NCC2c3c(c(c(C)c4c3OCO4)OC1)C[C@H]1[C@H]3c4c(cc(C)c(OC)c4O)C[C@@H]([C@H](C#N)N21)N3C` [Compound 33], the GI50 is 500 nM in the experiment with SK-OV-3 cancer cells; 370 nM in experiment [1]; 46 nM in [2]; 93 nM in experiment [3]; 31 nM with LOX-IMVI melanoma cells; 25 nM in experiment [4]. In addition, the GI50 in experiment [5] worked out at 190 nM; in experiment [6], 55 nM; with OVCAR-4 cancer cells, 400 nM; in experiment [7] it was 41 nM; with DMS273 lung cancer cells it was 140 nM; in experiment [8], 400 nM. The GI50 in experiment [9] was determined as 110 nM; in [10] it was 86 nM; in experiment [11] it was 330 nM; in experiment [12] it was 260 nM; with ACHN kidney cancer cells, 260 nM; in [13], 40 nM.
For the compound `C#CCN1C/C=C/C(=C)COc2c(C)c3c(c4c2C[C@H]2[C@H]5c6c(cc(C)c(OC)c6O)C[C@@H]([C@H](C#N)N2C4CNC(=O)[C@@H]1C)N5C)OCO3` [Compound 35], the GI50 turned out to be 6.5 nM in the experiment on SK-OV-3 cancer cells (Homo sapiens); 3.8 nM in experiment [1] (Homo sapiens); 2.2 nM in experiment [2] (Homo sapiens); 3.5 nM in experiment [3] (Homo sapiens); 1.7 nM in the experiment with LOX-IMVI melanoma cells (Homo sapiens); 1.1 nM in experiment [4] (Homo sapiens). Also, the GI50 in experiment [5] was determined as 3.3 nM; in experiment [6] (Homo sapiens, U-251), 2.5 nM; with OVCAR-4 cancer cells (Homo sapiens), 3.6 nM; in experiment [7] (Homo sapiens, MKN-45), 2.7 nM; in the experiment on DMS273 lung cancer cells (Homo sapiens, DMS-273), 2.5 nM; in experiment [8] (Homo sapiens), 4.5 nM. Further, the GI50 was found to be 3.3 nM in experiment [9] (Homo sapiens); 3.2 nM in [10] (Homo sapiens); 3.7 nM in experiment [11]; 4.5 nM in [12] (Homo sapiens, MKN-74); 3.1 nM in the experiment with ACHN kidney cancer cells (Homo sapiens); 2.7 nM in experiment [13] (HBC5).
Regarding `COc1c(C)cc2c(c1O)C1C3Cc4c5c(C)c6c(c4C(CNC(=O)C(C)NCC=CCO5)N3C(C#N)C(C2)N1C)OCO6` (stereo not drawn) [Compound 42], the GI50 in the experiment on SK-OV-3 cancer cells was 49 nM; in [1], 58 nM; in [2] it was 17 nM; in experiment [3], 31 nM; in the experiment on LOX-IMVI melanoma cells, under 10 nM; in experiment [4] it was under 10 nM. Also, the GI50 in experiment [5] was found to be 40 nM; in [6], 13 nM; with OVCAR-4 cancer cells it was 55 nM; in [7] it was 16 nM; with DMS273 lung cancer cells, 16 nM; in experiment [8], 47 nM. The GI50 in experiment [9] worked out at 27 nM; in experiment [10] it was 13 nM; in [11], 36 nM; in [12] it was 35 nM; with ACHN kidney cancer cells it was 42 nM; in [13] it was 17 nM.
